The subject of the assay is A2780. The assay is described as follows: Cytotoxicity against human A2780 cells. The assay is classed as cell-based.

Structures are written as SMILES.

The IC50 is the midpoint of a concentration-inhibition curve.

On to `C=CC(=C)CC[C@]1(C)[C@H](C)[C@@H](O)[C@H](O)[C@@]23C(=C[C@H](OC(=O)CCC)C[C@@H]12)[C@@H](OC(C)=O)O[C@H]3OC(C)=O` [CASEANIGRESCEN B], for which the IC50 was determined as 830 nM.
Consider `C=CC(=C)CC[C@]1(C)[C@H](C)C[C@H](O)[C@@]2(C=O)C(C=O)=C[C@H](OC(=O)CCC)C[C@@H]12` [CASEANIGRESCEN D2], for which it took 1500 nM to reach half-maximal inhibition (IC50).
For `C=CC(=C)CC[C@]1(C)[C@H](C)[C@@H](O)[C@H](OC(C)=O)[C@@]23C(=C[C@H](OC(=O)CCC)C[C@@H]12)[C@@H](OC(C)=O)O[C@H]3OC(C)=O` [CASEANIGRESCEN C] the value was 1000 nM; for `C=CC(=C)CC[C@]1(C)[C@H](C)C[C@H](O)[C@@]23C(=C[C@H](OC(=O)CCC)C[C@@H]12)[C@@H](OC(C)=O)O[C@H]3OC(C)=O` [CASEANIGRESCEN D], 1000 nM; for `C=CC(=C)CC[C@]1(C)[C@H](C)[C@@H](OC(C)=O)[C@H](O)[C@@]23C(=C[C@H](OC(=O)CCC)C[C@@H]12)[C@@H](OC(C)=O)O[C@H]3OC(C)=O` [CASEANIGRESCEN A], 1400 nM.
For `C=CC(=C)CC[C@]1(C)[C@H](C)[C@@H](OC(C)=O)[C@H](O)[C@@]2(C=O)C(C=O)=C[C@H](OC(=O)CCC)C[C@@H]12` the value was 3500 nM.

The record behind these values is ChEMBL document CHEMBL1141425, “Cytotoxic clerodane diterpenoids and their hydrolysis products from Casearia nigrescens from the rainforest of Madagascar” (J Nat Prod, 2007).
